Target: Plasma kallikrein (Homo sapiens, UniProt P03952)
Test: Measurements were performed in a kinetic interval every 2nd minute for 16 min using a Spectramax M5 (Molecular Devices) with the following settings of the wavelength excitation of 350 nm and wavelength emission of 450 nm.

Sequence of Plasma kallikrein (P03952 20-390 limits assumed): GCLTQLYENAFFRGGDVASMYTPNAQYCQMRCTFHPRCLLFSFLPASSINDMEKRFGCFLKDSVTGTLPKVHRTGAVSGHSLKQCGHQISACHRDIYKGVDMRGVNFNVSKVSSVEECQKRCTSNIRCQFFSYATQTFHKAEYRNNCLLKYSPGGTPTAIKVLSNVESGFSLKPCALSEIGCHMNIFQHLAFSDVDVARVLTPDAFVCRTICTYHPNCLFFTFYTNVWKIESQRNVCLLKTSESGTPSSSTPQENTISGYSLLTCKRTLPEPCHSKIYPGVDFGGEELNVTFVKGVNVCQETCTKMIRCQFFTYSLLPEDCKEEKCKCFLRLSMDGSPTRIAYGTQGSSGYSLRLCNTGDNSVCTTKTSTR
Sequence of Plasma kallikrein (P03952 391-638 limits assumed): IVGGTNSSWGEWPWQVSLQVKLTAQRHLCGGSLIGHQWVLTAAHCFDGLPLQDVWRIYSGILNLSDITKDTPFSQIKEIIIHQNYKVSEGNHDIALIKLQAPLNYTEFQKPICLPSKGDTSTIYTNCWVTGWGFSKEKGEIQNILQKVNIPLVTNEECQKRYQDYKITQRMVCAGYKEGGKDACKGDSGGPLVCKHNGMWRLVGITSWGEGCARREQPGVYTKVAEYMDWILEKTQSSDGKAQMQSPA

## Cc1nc(N2CC3C(C2)C3(F)F)ccc1Cn1cc(C(=O)N[C@@H]2CCc3c(C)n[nH]c32)c(C)n1 (some centres not stated)
  Ki: 0.1 nM

## Cc1nc(N2CC3(CC3)C2)ccc1Cn1cc(C(=O)N[C@@H]2CCc3c(C)n[nH]c32)cn1
  Ki: 0.4 nM
